Tested on: MV-4-11 cells
Experiment: Gene expression microarray analysis (Affymetrix PrimeView) and GSEA
Type: cell-based, human
Parameters: RFU PODN (11730768_x_at) / Fold change /veh PODN (11730768_x_at) / RFU LINC00158 (11744669_a_at) / Fold change /veh LINC00158 (11744669_a_at) / RFU DUSP10 (11751237_a_at) / Fold change /veh DUSP10 (11751237_a_at) / RFU ID3 (11757404_x_at) / Fold change /veh ID3 (11757404_x_at) / RFU PLEKHG5 (11737974_s_at) / Fold change /veh PLEKHG5 (11737974_s_at) / RFU LRRC4B (11730491_at) / Fold change /veh LRRC4B (11730491_at) / RFU GIMAP4 (11747438_a_at) / Fold change /veh GIMAP4 (11747438_a_at) / RFU KRT8 (11758183_x_at) / Fold change /veh KRT8 (11758183_x_at) / RFU CNN1 (11734310_a_at) / Fold change /veh CNN1 (11734310_a_at) / RFU VPS37D (11726825_at) / Fold change /veh VPS37D (11726825_at) / RFU C10orf10 (11716522_x_at) / Fold change /veh C10orf10 (11716522_x_at) / RFU KIR2DL2 /// KIR2DL4 /// KIR2DL5A /// KIR2DL5B /// KIR2DS1 /// KIR2DS2 /// KIR2DS3 /// KIR2DS4 /// KIR3DL3 /// KIR3DL3 /// KIR3DS1 (11738374_at) / Fold change /veh KIR2DL2 /// KIR2DL4 /// KIR2DL5A /// KIR2DL5B /// KIR2DS1 /// KIR2DS2 /// KIR2DS3 /// KIR2DS4 /// KIR3DL3 /// KIR3DL3 /// KIR3DS1 (11738374_at) / RFU C1QL1 (11718748_at) / Fold change /veh C1QL1 (11718748_at) / RFU TMPRSS4 (11747572_a_at) / Fold change /veh TMPRSS4 (11747572_a_at) / RFU HAMP (11756126_x_at) / Fold change /veh HAMP (11756126_x_at) / RFU RNFT2 (11725882_a_at) / Fold change /veh RNFT2 (11725882_a_at) / RFU NR4A2 (11747474_a_at) / Fold change /veh NR4A2 (11747474_a_at) / RFU ABCC12 (11746883_a_at) / Fold change /veh ABCC12 (11746883_a_at) / RFU TMEM136 (11760407_x_at) / Fold change /veh TMEM136 (11760407_x_at) / RFU CLDN22 /// WWC2 (11732394_at) / Fold change /veh CLDN22 /// WWC2 (11732394_at) / RFU HLA-DPB1 (11760878_x_at) / Fold change /veh HLA-DPB1 (11760878_x_at) / RFU SPINT1 (11716480_a_at) / Fold change /veh SPINT1 (11716480_a_at) / RFU GAP43 (11754022_s_at) / Fold change /veh GAP43 (11754022_s_at) / RFU A4GNT (11735810_at) / Fold change /veh A4GNT (11735810_at) / RFU PRB3 (11715151_x_at) / Fold change /veh PRB3 (11715151_x_at) / RFU TUBB4B (11761932_at) / Fold change /veh TUBB4B (11761932_at) / RFU CAPN14 (11732068_a_at) / Fold change /veh CAPN14 (11732068_a_at) / RFU TMCC2 (11721928_a_at) / Fold change /veh TMCC2 (11721928_a_at) / RFU IRGQ (11745062_a_at) / Fold change /veh IRGQ (11745062_a_at) / RFU FAM174B (11720279_a_at) / Fold change /veh FAM174B (11720279_a_at) / RFU TMPRSS4 (11748680_a_at) / Fold change /veh TMPRSS4 (11748680_a_at) / RFU FAM212B (11763350_a_at) / Fold change /veh FAM212B (11763350_a_at) / RFU PLEKHG5 (11743358_a_at) / Fold change /veh PLEKHG5 (11743358_a_at) / RFU ZSCAN30 (11745921_a_at) / Fold change /veh ZSCAN30 (11745921_a_at) / RFU CMKLR1 (11741424_a_at) / Fold change /veh CMKLR1 (11741424_a_at) / RFU LOC101060620 /// MAPK8IP1 (11723275_at) / Fold change /veh LOC101060620 /// MAPK8IP1 (11723275_at) / RFU SPTSSB (11747773_x_at) / Fold change /veh SPTSSB (11747773_x_at) / RFU PRSS12 (11739890_at) / Fold change /veh PRSS12 (11739890_at) / RFU BIN1 (11741810_x_at) / Fold change /veh BIN1 (11741810_x_at) / RFU WNT11 (11732464_a_at) / Fold change /veh WNT11 (11732464_a_at) / RFU C10orf10 (11716521_a_at) / Fold change /veh C10orf10 (11716521_a_at) / RFU C5orf56 (11738089_at) / Fold change /veh C5orf56 (11738089_at) / RFU CYB561 (11721691_x_at) / Fold change /veh CYB561 (11721691_x_at) / RFU ANKRD19P (11752326_a_at) / Fold change /veh ANKRD19P (11752326_a_at) / RFU OR2T12 /// OR2T33 /// OR2T8 (11738714_s_at) / Fold change /veh OR2T12 /// OR2T33 /// OR2T8 (11738714_s_at) / RFU VCAN (11748164_a_at) / Fold change /veh VCAN (11748164_a_at) / RFU JSRP1 (11732532_at) / Fold change /veh JSRP1 (11732532_at) / RFU KRTAP10-11 (11738290_x_at) / Fold change /veh KRTAP10-11 (11738290_x_at) / RFU MYO3A (11730013_a_at) / Fold change /veh MYO3A (11730013_a_at) / RFU EBF3 (11725865_a_at) / Fold change /veh EBF3 (11725865_a_at) / RFU CAMK2N1 (11719241_x_at) / Fold change /veh CAMK2N1 (11719241_x_at) / RFU C5orf56 (11738088_a_at) / Fold change /veh C5orf56 (11738088_a_at) / RFU OLFML3 (11715873_a_at) / Fold change /veh OLFML3 (11715873_a_at) / RFU LOC100653217 /// NTM (11731650_a_at) / Fold change /veh LOC100653217 /// NTM (11731650_a_at) / RFU MAPK11 (11762145_a_at) / Fold change /veh MAPK11 (11762145_a_at) / RFU FIZ1 (11724087_x_at) / Fold change /veh FIZ1 (11724087_x_at) / RFU OASL (11726364_x_at) / Fold change /veh OASL (11726364_x_at) / RFU SOX15 (11748057_x_at) / Fold change /veh SOX15 (11748057_x_at) / RFU CD79A (11719716_a_at) / Fold change /veh CD79A (11719716_a_at) / RFU HIST1H1D (11736915_at) / Fold change /veh HIST1H1D (11736915_at) / RFU CASKIN2 (11723855_a_at) / Fold change /veh CASKIN2 (11723855_a_at) / RFU LOC730098 (11760151_x_at) / Fold change /veh LOC730098 (11760151_x_at) / RFU OR4N2 (11742367_at) / Fold change /veh OR4N2 (11742367_at) / RFU PRRT2 (11749266_a_at) / Fold change /veh PRRT2 (11749266_a_at) / RFU SNX32 (11753110_a_at) / Fold change /veh SNX32 (11753110_a_at) / RFU CDHR5 (11726645_a_at) / Fold change /veh CDHR5 (11726645_a_at) / RFU RCAN1 (11760418_a_at) / Fold change /veh RCAN1 (11760418_a_at) / RFU FAM167A (11723789_a_at) / Fold change /veh FAM167A (11723789_a_at) / RFU FAM26E (11764081_at) / Fold change /veh FAM26E (11764081_at) / RFU ISYNA1 (11749810_s_at) / Fold change /veh ISYNA1 (11749810_s_at) / RFU ACY1 (11761880_at) / Fold change /veh ACY1 (11761880_at) / RFU 11764098_at / Fold change /veh 11764098_at / RFU SAMD14 (11745864_x_at) / Fold change /veh SAMD14 (11745864_x_at) / RFU NPB (11741838_a_at) / Fold change /veh NPB (11741838_a_at) / RFU TMPRSS6 (11731388_a_at) / Fold change /veh TMPRSS6 (11731388_a_at) / RFU KRTAP10-2 (11738614_at) / Fold change /veh KRTAP10-2 (11738614_at) / RFU ARHGAP8 /// PRR5-ARHGAP8 (11727945_x_at) / Fold change /veh ARHGAP8 /// PRR5-ARHGAP8 (11727945_x_at) / RFU KRTAP5-7 /// NADSYN1 (11734609_at) / Fold change /veh KRTAP5-7 /// NADSYN1 (11734609_at) / RFU RASL12 (11751679_a_at) / Fold change /veh RASL12 (11751679_a_at) / RFU CDKN2B (11736163_a_at) / Fold change /veh CDKN2B (11736163_a_at) / RFU PRF1 (11729649_at) / Fold change /veh PRF1 (11729649_at) / RFU, ZNF638 /// ZNF638-IT1 / Fold change vs veh, ZNF638 /// ZNF638-IT1 / RFU, PANK3 / Fold change vs veh, PANK3 / RFU, SH3YL1 / Fold change vs veh, SH3YL1 / RFU, ZEB2 / Fold change vs veh, ZEB2 / RFU, NRIP1 / Fold change vs veh, NRIP1 / RFU, PTTG1IP / Fold change vs veh, PTTG1IP / RFU, CAPN2 / Fold change vs veh, CAPN2 / RFU, MED14 / Fold change vs veh, MED14 / RFU, SNORA58 / Fold change vs veh, SNORA58 / RFU, C1orf63 / Fold change vs veh, C1orf63 / RFU, LRRFIP1 / Fold change vs veh, LRRFIP1 / RFU, NDUFAF7 / Fold change vs veh, NDUFAF7 / RFU, SLC12A2 / Fold change vs veh, SLC12A2 / RFU, IBTK / Fold change vs veh, IBTK / RFU, ESF1 / Fold change vs veh, ESF1 / Fold change vs veh, TMEM50B / RFU, TAOK1 / Fold change vs veh, TAOK1 / RFU, ACBD3 / Fold change vs veh, ACBD3 / RFU, TMA16 / Fold change vs veh, TMA16 / RFU, RWDD3 / Fold change vs veh, RWDD3 / RFU, BCAT1 / Fold change vs veh, BCAT1 / RFU, EDEM3 / Fold change vs veh, EDEM3 / RFU, TMEM33 / Fold change vs veh, TMEM33 / RFU, WDR75 / Fold change vs veh, WDR75 / RFU, AHCTF1 / Fold change vs veh, AHCTF1 / RFU, TFRC / Fold change vs veh, TFRC / RFU, ZDHHC17 / Fold change vs veh, ZDHHC17 / RFU, NOM1 / Fold change vs veh, NOM1 / RFU, ARL8B / Fold change vs veh, ARL8B / RFU, ZBTB11 / Fold change vs veh, ZBTB11 / RFU, TAMM41 / Fold change vs veh, TAMM41 / RFU, KIAA1704 /// LOC100996395 / Fold change vs veh, KIAA1704 /// LOC100996395 / RFU, ING1 / Fold change vs veh, ING1 / RFU, TRMT61B / Fold change vs veh, TRMT61B / RFU, FUBP3 / Fold change vs veh, FUBP3 / RFU, TP53 / Fold change vs veh, TP53 / RFU, TNKS2 / Fold change vs veh, TNKS2 / RFU, ZFP14 / Fold change vs veh, ZFP14 / RFU, ACTR2 / Fold change vs veh, ACTR2 / RFU, PPP3R1 / Fold change vs veh, PPP3R1 / RFU, PIK3R1 / Fold change vs veh, PIK3R1 / RFU, HNRNPA1 / Fold change vs veh, HNRNPA1 / RFU, RNF170 / Fold change vs veh, RNF170 / RFU, ZNF28 / Fold change vs veh, ZNF28 / RFU, RNGTT / Fold change vs veh, RNGTT / RFU, OGT / Fold change vs veh, OGT / RFU, BRD1 / Fold change vs veh, BRD1 / RFU, MARS / Fold change vs veh, MARS / RFU, ZNF655 / Fold change vs veh, ZNF655 / RFU, FAHD1 / Fold change vs veh, FAHD1 / RFU, BDP1 / Fold change vs veh, BDP1 / RFU, LRRCC1 / Fold change vs veh, LRRCC1 / RFU, ARID1A / Fold change vs veh, ARID1A / RFU, ZNF146 / Fold change vs veh, ZNF146 / RFU, ZNF330 / Fold change vs veh, ZNF330 / RFU, GPN3 / Fold change vs veh, GPN3 / RFU, C9orf123 / Fold change vs veh, C9orf123 / RFU, N4BP2L2 / Fold change vs veh, N4BP2L2 / RFU, ARFIP1 / Fold change vs veh, ARFIP1 / RFU, FAM179B / Fold change vs veh, FAM179B / RFU, BCL10 / Fold change vs veh, BCL10 / RFU, UHRF1BP1L / Fold change vs veh, UHRF1BP1L / RFU, BET1 / Fold change vs veh, BET1 / RFU, CNOT2 / Fold change vs veh, CNOT2 / RFU, ZNF268 / Fold change vs veh, ZNF268 / Fold change vs veh, ZNF507 / RFU, DGCR2 / Fold change vs veh, DGCR2 / RFU, WDSUB1 / Fold change vs veh, WDSUB1 / Fold change vs veh, HSP90B1 /// MIR3652 / RFU, ADSS / Fold change vs veh, ADSS / RFU, GK / Fold change vs veh, GK / RFU, ZNF148 / Fold change vs veh, ZNF148 / RFU, TAF9 / Fold change vs veh, TAF9 / RFU, SLC1A5 / Fold change vs veh, SLC1A5 / RFU, SLMO2 / Fold change vs veh, SLMO2 / RFU, ABCC4 / Fold change vs veh, ABCC4 / RFU, LOC101060439 /// RAP1B / Fold change vs veh, LOC101060439 /// RAP1B / RFU, RFX7 / Fold change vs veh, RFX7 / RFU, GTPBP10 / Fold change vs veh, GTPBP10 / RFU, CNEP1R1 / Fold change vs veh, CNEP1R1 / RFU, BIVM-ERCC5 /// ERCC5 / Fold change vs veh, BIVM-ERCC5 /// ERCC5 / RFU, ILF3 / Fold change vs veh, ILF3 / RFU 11762660_at / Fold change /veh 11762660_at / RFU VCAN (11757783_s_at) / Fold change /veh VCAN (11757783_s_at) / RFU DDX43 (11728927_at) / Fold change /veh DDX43 (11728927_at) / RFU KRT8 (11758188_x_at) / Fold change /veh KRT8 (11758188_x_at) / RFU NKD1 (11759106_at) / Fold change /veh NKD1 (11759106_at) / RFU SRD5A1 (11742802_a_at) / Fold change /veh SRD5A1 (11742802_a_at) / RFU TPSAB1 /// TPSB2 (11721975_s_at) / Fold change /veh TPSAB1 /// TPSB2 (11721975_s_at) / RFU GSTM3 (11746129_a_at) / Fold change /veh GSTM3 (11746129_a_at) / RFU IL23R (11737362_x_at) / Fold change /veh IL23R (11737362_x_at) / RFU TMEM51 (11727254_a_at) / Fold change /veh TMEM51 (11727254_a_at) / RFU PIWIL2 (11732686_x_at) / Fold change /veh PIWIL2 (11732686_x_at) / RFU ORM1 (11744905_x_at) / Fold change /veh ORM1 (11744905_x_at) / RFU CCDC152 (11743942_at) / Fold change /veh CCDC152 (11743942_at) / RFU ECM1 (11717891_a_at) / Fold change /veh ECM1 (11717891_a_at) / RFU IL23R (11748794_a_at) / Fold change /veh IL23R (11748794_a_at) / RFU TNFAIP8L3 (11732012_x_at) / Fold change /veh TNFAIP8L3 (11732012_x_at) / RFU MBOAT4 (11741988_at) / Fold change /veh MBOAT4 (11741988_at) / RFU 11764193_at / Fold change /veh 11764193_at / RFU TMEM53 (11763286_at) / Fold change /veh TMEM53 (11763286_at) / RFU MAGEB2 (11727129_at) / Fold change /veh MAGEB2 (11727129_at) / RFU TMEM200A (11744735_a_at) / Fold change /veh TMEM200A (11744735_a_at) / RFU CCDC152 (11751479_a_at) / Fold change /veh CCDC152 (11751479_a_at) / RFU FAM211A (11726209_a_at) / Fold change /veh FAM211A (11726209_a_at) / RFU RGS16 (11746705_a_at) / Fold change /veh RGS16 (11746705_a_at) / RFU VCAN (11755009_s_at) / Fold change /veh VCAN (11755009_s_at) / RFU RHOB (11743442_s_at) / Fold change /veh RHOB (11743442_s_at) / RFU RGS16 (11720943_a_at) / Fold change /veh RGS16 (11720943_a_at) / RFU RGS16 (11720944_at) / Fold change /veh RGS16 (11720944_at) / RFU, VPS4B / Fold change vs veh, VPS4B / RFU, CREB1 / Fold change vs veh, CREB1 / RFU, DNAJC13 / Fold change vs veh, DNAJC13 / RFU, GNAQ / Fold change vs veh, GNAQ / RFU, CDK5R1 / Fold change vs veh, CDK5R1 / RFU, ZRANB3 / Fold change vs veh, ZRANB3 / RFU, CUL4A / Fold change vs veh, CUL4A / RFU, CCNY / Fold change vs veh, CCNY / RFU, UFL1 / Fold change vs veh, UFL1 / RFU, COG3 / Fold change vs veh, COG3 / RFU, DIAPH2 / Fold change vs veh, DIAPH2 / RFU, SKA2 / Fold change vs veh, SKA2 / RFU, AFF3 / Fold change vs veh, AFF3 / RFU, LMF1 / Fold change vs veh, LMF1 / RFU, IPO11 / Fold change vs veh, IPO11 / RFU, DFFB / Fold change vs veh, DFFB / RFU, FOXP1 / Fold change vs veh, FOXP1 / RFU, CARD8 / Fold change vs veh, CARD8 / RFU, STRN3 / Fold change vs veh, STRN3 / RFU, ADK / Fold change vs veh, ADK / RFU, RASSF2 / Fold change vs veh, RASSF2 / RFU, WIPF1 / Fold change vs veh, WIPF1 / RFU, LARP1B / Fold change vs veh, LARP1B / RFU, RASA1 / Fold change vs veh, RASA1 / RFU, RB1 / Fold change vs veh, RB1 / RFU, PPFIA1 / Fold change vs veh, PPFIA1 / RFU, MAT2A / Fold change vs veh, MAT2A / RFU, CCT5 / Fold change vs veh, CCT5 / RFU, WDR92 / Fold change vs veh, WDR92 / RFU, CUX1 / Fold change vs veh, CUX1 / RFU, TTC7A / Fold change vs veh, TTC7A / RFU, TMEM135 / Fold change vs veh, TMEM135 / RFU, DEPTOR / Fold change vs veh, DEPTOR / RFU, CPM / Fold change vs veh, CPM / RFU, DNAJB6 / Fold change vs veh, DNAJB6 / RFU, CACNA2D3 / Fold change vs veh, CACNA2D3 / RFU, DTX4 / Fold change vs veh, DTX4 / RFU, TFCP2 / Fold change vs veh, TFCP2 / RFU, GMCL1 /// GMCL1P1 / Fold change vs veh, GMCL1 /// GMCL1P1 / RFU, AEBP2 / Fold change vs veh, AEBP2 / RFU, SNHG1 /// SNORD22 /// SNORD25 /// SNORD26 /// SNORD27 /// SNORD28 /// SNORD29 /// SNORD31 / Fold change vs veh, SNHG1 /// SNORD22 /// SNORD25 /// SNORD26 /// SNORD27 /// SNORD28 /// SNORD29 /// SNORD31 / Fold change (Aza/veh), C12orf56 (ProbeSet 11735607_a_at) / Fold change (ACY-1035/veh), C12orf56 (ProbeSet 11735607_a_at) / Fold change (Aza/veh), FGFR1OP (ProbeSet 11751329_s_at) / Fold change (ACY-1035/veh), FGFR1OP (ProbeSet 11751329_s_at) / Fold change (Aza/veh), VPS36 (ProbeSet 11739960_a_at) / Fold change (ACY-1035/veh), VPS36 (ProbeSet 11739960_a_at) / RFU SYPL1 (11715823_x_at) / Fold change /veh SYPL1 (11715823_x_at) / RFU IGFBP7 (11715501_s_at) / Fold change /veh IGFBP7 (11715501_s_at) / RFU REEP3 (11722064_at) / Fold change /veh REEP3 (11722064_at) / RFU IGLL1 (11728026_x_at) / Fold change /veh IGLL1 (11728026_x_at): dose or concentration left out as unconfirmed
Details: ProbeSet 11716331_a_at; LIST D

Q: For `Nc1ncn([C@@H]2O[C@H](CO)[C@@H](O)[C@H]2O)c(=O)n1` [azacitidine], which “RFU, DNAJB6” value is on record?
A: The value was 212.79 RFU.

Source: PMC5218480 (PLoS ONE, 2017)
